Data published in US12479792B2, “Compositions of chelating molecules” (The Regents of the University of California, priority 2016, dated 2025).

Columns and labels:
[1] = Deblonde et al. 2013; Sturzbecher-Hoehne et al. 2015; cited from earlier work
[2] = Abergel et al., Inorganic chemistry 2009; given for comparison; cited from earlier work
[3] = same conditions; Abergel et al., Inorganic chemistry 2009; cited from earlier work
[4] = Zr(IV) complex formation constants by spectrophotometric competition titration in the presence of DTPA; type: binding
Method: (§1) Metal, Chelator Solutions. The trivalent lanthanide Ln(III) working stock solutions were prepared in standardized 0.1 M HCl. A Zr(IV) stock solution was prepared by dissolving ZrCl4 in 3.0 M H2SO4, to prevent hydrolysis. The metal salt ZrCl4 was handled and stored in a glovebox kept under inert atmosphere. The Zr(IV) stock solution was standardized against EDTA, with xylene orange as the indicator (Welcher, F. J. The analytical uses of ethylenediamine tetraacetic acid; 1958). A Th(IV) stock solution was prepared in 0.1 M H2SO4. Stock solutions (4 mM) of Ent, and 3,4,3-LI(CAM) were prepared by direct dissolution of a weighed portion of chelator in DMSO and aliquots were removed prior to each set of experiments.
(§2) Solution Thermodynamics. All titrant solutions were degassed by boiling for 1 h while being purged under Ar. Carbonate-free 0.1 M KOH was prepared from concentrate (J.T Baker Dilut-It) and was standardized by titrating against 0.1 M potassium hydrogen phthalate (99.95%, Sigma Aldrich). Solutions of 0.1 M HCl were similarly prepared and were standardized by titrating against TRIS (99.9%, J.T. Baker). The glass electrode (Metrohm-Micro Combi-response to [H+]) used for the pH measurements was calibrated at 25.0° C. and at an ionic strength of 0.1 M (KCl) before each potentiometric or spectrophotometric titration. The calibration data were analyzed using the program GLEE (Gans & O'Sullivan, Talanta, 2000, 51 (1): 33-37) to refine for the E° and slope. All thermodynamic measurements were conducted at 25.0° C., in 0.1 M KCl supporting electrolyte under positive Ar gas pressure. The automated titration system was controlled by an 867 pH Module (Metrohm). […]
(§3) Incremental Spectrophotometric Titrations. […] For the 3,4,3-LI(CAM) protonation (and Eu(III)-3,4,3-LI(CAM) complexes), titrations were performed with an initial concentration of 50 μM of 3,4,3-LI(CAM) (and 50 μM of Eu(III)) resulting in absorbance values included between 0 and 1.0 throughout the titration. […]

[5] = Eu(III) complex formation constants by incremental spectrophotometric titration; type: binding
Method: as §1, §2, §3

[6] = Th(IV) complex formation constants by spectrophotometric competition titration in the presence of DTPA; type: binding
Method: as §1, §2, §3

SMILES	pH at which 4+ metal complexes are formed [1]	overall acidity ΣpKa5-8 [2]	pH at which Eu(III) species already appear [3]	log β110, stability constant of Zr(IV) complex ([4]; I=0.1 M (KCl), T=25° C.)	predominant Zr(IV) species at physiological pH ([4]; pH 7.4, speciation diagram, 1 equivalent of Zr(IV))	pH at which Zr(IV) complexes start forming ([4]; speciation diagram, 1 equivalent of Zr(IV), [Zr]=[CAM]=10 μM, T=25° C., I=0.1 M, Hyss)	log β110, stability constant of Eu(III) complex ([5]; I=0.1 M (KCl), T=25° C.)	only Eu(III) species present at pH 7.4 ([5]; pH 7.4, speciation diagram, 1 equivalent of Eu(III))	pH at which Eu(III) complexation starts ([5]; speciation diagram, 1 equivalent of Eu(III), [Eu]=[CAM]=10 μM, T=25° C., I=0.1 M, Hyss)	log β110, stability constant of Th(IV) complex ([6]; I=0.1 M (KCl), T=25° C.)	predominant Th(IV) species at physiological pH ([6]; pH 7.4, speciation diagram, 1 equivalent of Th(IV))	pH at which Th(IV) complexes start forming ([6]; speciation diagram, 1 equivalent of Th(IV), [Th]=[CAM]=10 μM, T=25° C., I=0.1 M, Hyss)
O=C(NCCCN(CCCCN(CCCNC(=O)c1cccc(=O)n1O)C(=O)c1cccc(=O)n1O)C(=O)c1cccc(=O)n1O)c1cccc(=O)n1O [3,4,3-LI(1,2-HOPO)]	< 0	21.2	1	–	–	–	–	–	–	–	–	–
O=C(NCCCN(CCCCN(CCCNC(=O)c1cccc(O)c1O)C(=O)c1cccc(O)c1O)C(=O)c1cccc(O)c1O)c1cccc(O)c1O [3,4,3-LI(CAM)]	–	–	–	57.3	[MIVLH]^3− and [MIVL]^4−	~3	29.7	[Eu^IIILH]^4−	5	47.7	[MIVLH]^3− and [MIVL]^4−	~3
